Measured values published in patent US10092535B2, “Treatment of nervous system disorders using combinations of RXR agonists and thyroid hormones” (IO Therapeutics, Inc., priority 2015, dated 2018).
“Also recorded” adds a separate entry of the source.

Experiments:
[1] = system: mouse oligodendrocyte progenitor cells (OPCs); assay: Mouse OPC differentiation with IRX4204 and T3; format: cell-based; conditions: 5-day treatment, 96-well plates
Procedure: OPCs were derived from plp-EGFP expressing mice.
Therapeutic agents were tested in 96-well plates (6 wells per concentration). […] All media contained 0.1% DMSO. At the end of the 5-day treatment, cells were imaged on Cellomics in two channels and algorithms were used to count nuclei and EGFP+oligodendrocytes.

[2] = system: oligodendrocyte precursor cells (OPCs); assay: OPC differentiation into oligodendrocytes (PLP-EGFP, Example 7); format: cell-based, mouse; conditions: compared to negative control (DMSO)
Description: OPCs were generated from a neurosphere culture of E14.5 PLP-EGFP (on C57BL/6J background) mouse brains. […] The EGFP expressing cells were quantified with Cellomics Neuronal Profiling Algorithm.
The EGFP expressing cells in controls and all compounds were quantified with Cellomics Neuronal Profiling Algorithm.

[3] = system: EAE in SJL mice; assay: EAE in SJL mice (PLP peptide); format: in vivo
Procedure: To determine whether a RXR agonist can attenuate multiple sclerosis, SJL mice were immunized to induce EAE by s.c. injection at the base of their spine with 200 μL of adjuvant containing 200 μg proteolipid proteins (139-151) (PLP peptide; Peptides International, Louisville, Ky.) and 400 μg of non-viable M. tuberculosis H37 desiccate emulsified in a mixture of incomplete Freund's adjuvant and PBS. Mice were also given 150 ng of pertussis toxin in PBS i.p. on the same day as PLP emulsion injection and 2 days later. […] Mice were scored using the scale described in Example 3.

[4] = system: EAE in B6 mice; assay: EAE dose titration in B6 mice with spleen and CNS flow analysis; format: in vivo
Procedure: A dose titration experiment was also conducted in EAE mice. EAE was induced in 28 B6 mice with MOG/CFA and PT as above. Mice were scored on day 7 as indicated above and divided into groups by score so means are as equal as possible.
At the completion of the experiment, the vehicle control and 200 μg/day groups were euthanized and spleen and CNS samples obtained.

[5] = system: LXRβ/RXR; assay: LXRβ/RXR transactivation assay (CV-1 cells); format: cell-based; conditions: 20 hr; relative to T0901317
Description: (§1) For PPARγ: CV-1 cells were transfected with 3×(rAOX/DR1)-tk-Luc reporter gene and an expression vector for PPARγ. For FXR:CV-1 cells were transfected with 3×(IBABP/IRI)-tk-Luc reporter gene and vectors for FXR and RXRα. For LXR:CV-1 cells were transfected with 3×(PLTP/LXRE)-tk-Luc reporter gene with vectors for LXRα or LXRβ. For Nurr1: COS 7 cells were transfected with 3×NBRE-tk-luc reporter gene and full length Nurr-1 with or without full-length RXRα plasmid. […] Luciferase data were normalized to co-transfected β-gal activity. Luciferase activity was expressed as percent of maximal activity obtained using specific agonists. Rosiglitazone (PPARγ), GW4064 (FXR), T0901317 (LXR).

[6] = system: CNS infiltrating leukocytes in EAE C57BL/6 (B6) mice; assay: CNS infiltrating cells in EAE B6 mice (FACS); format: in vivo; conditions: day 20 after immunization, vs vehicle control
Procedure: To determine whether a RXR agonist can reduce central nervous system (CNS) infiltrating cells, C57BL/6 (B6) mice were treated as described in Example 6. On day 20 after immunization, mice were sacrificed and perfused with phosphate buffered saline (PBS). Brain and spinal cord tissue was isolated, digested with DNase and LIBERASE DL® (Roche Diagnostics, Indianapolis, Ind.) for 30 minutes, and homogenized through 70 micron nylon mesh filters. Resulting cells were placed over a Percoll gradient to remove myelin. The remaining cells (microglia and CNS infiltrating cells) were counted, stained for molecules of interest, and run on a flow cytometer. Based on the frequencies obtained by FACS of these cell populations, total cell numbers of CNS infiltrating leukocytes expressing CD45, including CD4^+ T cells and CD11c^+ CD11b^+ myeloid dendritic cells (DC), were calculated.

[7] = biological target: Nurr1/RXR heterodimer (Homo sapiens, UniProt P19793); assay: Nurr1/RXR transactivation assay (COS 7 cells, NBRE-tk-luc); format: cell-based; conditions: Nurr-1 with or without RXRα
Sequence of Nurr1/RXR heterodimer (P43354 whole entry partner, one chain of several): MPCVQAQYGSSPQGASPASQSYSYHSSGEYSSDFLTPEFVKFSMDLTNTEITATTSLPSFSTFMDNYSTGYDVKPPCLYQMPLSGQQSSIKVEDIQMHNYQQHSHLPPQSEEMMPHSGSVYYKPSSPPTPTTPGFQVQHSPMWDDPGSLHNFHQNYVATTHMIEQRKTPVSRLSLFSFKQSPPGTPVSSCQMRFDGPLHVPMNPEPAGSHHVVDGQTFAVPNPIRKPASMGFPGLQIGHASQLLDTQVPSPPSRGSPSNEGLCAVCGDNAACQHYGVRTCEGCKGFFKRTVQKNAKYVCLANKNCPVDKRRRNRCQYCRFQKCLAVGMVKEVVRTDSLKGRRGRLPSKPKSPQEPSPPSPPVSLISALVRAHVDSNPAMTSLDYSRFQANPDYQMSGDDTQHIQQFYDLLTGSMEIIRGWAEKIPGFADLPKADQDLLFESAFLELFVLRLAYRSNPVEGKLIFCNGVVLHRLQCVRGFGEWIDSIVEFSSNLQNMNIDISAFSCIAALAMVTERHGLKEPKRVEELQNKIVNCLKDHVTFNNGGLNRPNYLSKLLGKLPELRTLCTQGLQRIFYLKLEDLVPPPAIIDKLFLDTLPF
Description: as §1

[8] = system: LXRα/RXR; assay: LXRα/RXR transactivation assay (CV-1 cells); format: cell-based; conditions: 20 hr; relative to T0901317
Description: as §1

[9] = biological target: T1, RXRα (Homo sapiens, UniProt P19793); conditions: transactivation assays
T1 sequence (P19793 1-462): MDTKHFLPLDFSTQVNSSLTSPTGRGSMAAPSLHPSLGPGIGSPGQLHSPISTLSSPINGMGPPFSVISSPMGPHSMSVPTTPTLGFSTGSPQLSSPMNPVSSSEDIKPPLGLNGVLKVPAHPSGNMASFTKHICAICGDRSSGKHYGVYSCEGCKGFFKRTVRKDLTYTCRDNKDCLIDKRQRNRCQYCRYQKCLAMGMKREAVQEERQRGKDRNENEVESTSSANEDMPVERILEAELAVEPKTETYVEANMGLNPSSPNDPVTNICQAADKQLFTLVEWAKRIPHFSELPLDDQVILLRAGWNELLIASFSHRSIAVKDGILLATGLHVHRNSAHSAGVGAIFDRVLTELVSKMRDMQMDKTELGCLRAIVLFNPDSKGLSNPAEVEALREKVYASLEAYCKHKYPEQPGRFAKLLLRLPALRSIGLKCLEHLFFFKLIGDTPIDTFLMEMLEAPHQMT
Procedure: To determine whether a RXR agonist can mediate its effects via RXRα receptor homodimers, RXRβ receptor homodimers, RXRγ receptor homodimers, or any combination thereof, or the corresponding RAR/RXR heterodimers, receptor-mediated transactivation assays were performed. For transactivation assays assessing RXR homodimer signaling, CV-1 cells were transfected with 1) an expression construct including a full length RXRα, RXRβ, or RXRγ; and 2) a rCRBPII/RXRE-tk-Luc reporter construct that included RXR homodimer-specific RXRE/DR1 responsive element linked to a luciferase gene. For transactivation assays assessing RAR/RXR heterodimer signaling, CV-1 cells were transfected with 1) an expression construct comprising a fusion protein including an estrogen receptor (ER) DNA binding domain linked to the ligand binding domain of RARα, RARβ, or RARγ and 2) a ERE-tk-Luc reporter construct that included an estrogen receptor responsive element linked to a luciferase gene. […] Data are mean values±SE from five independent experiments.

[10] = system: cuprizone+rapamycin (CR) demyelination in C57BL/6J mice
Description: Animals (8 week-old male C57BL/6J mice) were subjected to cuprizone diet plus rapamycin injections (CR) for 6 weeks to induce demyelination. […] All animals were sacrificed after 6 weeks of CR to evaluate axonal integrity and microglial/macrophage activity in the white matter (corpus callosum, CC).
A total of 50 animals were included in the study, where 43 animals received CR demyelination for 6 weeks. During demyelination, a subset (n=7) of animals were kept on normal diet to serve as naïve age-matched controls.
To assess thyroid hormone levels, terminal blood draws were taken to quantify the levels of T4.

[11] = system: focal demyelination of caudal cerebellar peduncles in rats; assay: Ethidium bromide focal demyelination in one year old rats; format: in vivo; conditions: IRX4204 10 mg/kg/day oral, thyroxine 20 ng/g s.c., day 7 to 21
Procedure: The experiment uses rats of relatively advanced age (1 year) since such rats undergo remyelination in a less efficient manner, thereby providing data that are more relevant to the clinical treatment of human patients with multiple sclerosis or other demyelination disorders.
Focal demyelination is induced in one year old rats (approximately 300 g in weight) by injecting stereotactically 5 μl of ethidium bromide solution (0.01% vol/vol in saline) in a bilateral manner into the caudal cerebellar peduncles (CCP). […] The rats are killed on day 24 post-ethidium bromide treatment for analysis of remyelination by quantitative polymerase chain reaction (qPCR) and microscopy.

[12] = system: cuprizone+rapamycin demyelination in C57BL/6J mice; assay: Cuprizone/rapamycin 12-week demyelination, 6-week remyelination treatment; format: in vivo
Description: All animals were sacrificed after 12 weeks of CR or after further 6 weeks of treatment to evaluate myelin in white matter (corpus callosum) and gray matter (hippocampus and cortex). In addition, the size of myelinated axons was quantified and the large myelinated axons were further assessed by 3D-electron microscopy (3D-EM). A total of 40 animals were included in the study, where all 40 animals received CR demyelination for 12 weeks. After demyelination, a subset (n=10) of animals are sacrificed to serve as controls to assess baseline demyelination. […] Floating brain sections are immunostained with myelin prolipid protein (PLP) to visualize and quantify myelin in gray matter, hippocampus (FIG. 16A) and cortex (FIG. 16B).

[13] = system: experimental autoimmune encephalomyelitis (EAE) in C57BL/6 (B6) mice; assay: EAE in B6 mice (MOG peptide), disease severity score; format: in vivo; conditions: IRX4204 50 μg every other day from day 7 to day 20; vs vehicle
Procedure: Mice were also given 200 ng of pertussis toxin in PBS administered by inter-peritoneal (i.p.) injection on the same day as MOG emulsion injection (day 0) and 2 days later (day 2). […] Mice were scored using the following scale: 0—Mice have no disease, 1—Mice have distal limp tail or rear leg weakness (paresis), 1.5—Mice have distal limp tail and rear leg weakness, 2—Mice have complete limp tail and rear leg weakness, 2.5—Mice have complete limp tail and weakness in both rear legs, 3—Mice have complete limp tail and paralysis in both rear legs, 3.5—Mice have complete limp tail, paralysis in both rear legs, and forelimb weakness. Mice receiving a score of 3.5 were immediately euthanized.

[14] = CNS, restimulation with PMA/Ionomycin, 200 μg/day vs vehicle

N[C@@H](Cc1cc(I)c(Oc2ccc(O)c(I)c2)c(I)c1)C(=O)O [Compound T3, triiodothyronine, reference compound]
oligodendrocyte production (EGFP+ oligodendrocytes) [1]: clear dose-responses

CC(/C=C/[C@@H]1C[C@]1(C)c1ccc2c(c1)C(C)(C)CCC2(C)C)=C\C(=O)O [IRX4204, 3,7-dimethyl-6(S),7(S)-methano,7-[1,1,4,4-tetramethyl-1,2,3,4-tetrahydronaphth-7-yl]2(E),4(E) heptadienoic acid]
OPC differentiation into oligodendrocytes (number of EGFP positive cells) [2]: significant increase; also recorded: dose dependent increase | symptoms of EAE (disease severity score) ([3]; 50 μg i.p. every other day from day 7 to day 14): significantly reduces the symptoms of EAE | Death from Disease ([3]; 50 μg i.p. every other day, n=6): 0/6 | EAE disease overall ([4]; 50 μg, 100 μg, or 200 μg every day from day 8, vs vehicle): significantly less disease overall | Co-expression of IFNg and IL-17A by CD4 T cells in CNS ([4]; CNS, 200 μg/day vs vehicle): not significantly different between groups | total number of infiltrating CD4 T cells in the CNS ([4]; CNS, 200 μg/day vs vehicle): reduced | IFNγ production by CNS infiltrating lymphocytes [4, 14]: significantly reduced | TNF production by CNS infiltrating lymphocytes [4, 14]: significantly reduced | CCR6 expression on CD4 T cells ([4]; spleen, 200 μg/day vs vehicle): lowered CCR6 | CD4+ CD25hi cells (number) ([4]; spleen, 200 μg/day vs vehicle): reduced | CD4+ CD25hi cells frequency ([4]; spleen, 200 μg/day vs vehicle): not altered | CD49d expression on CD4 T cells ([4]; spleen, 200 μg/day vs vehicle): but not CD49d | total number of effector and memory CD4 T cells (CD44 expression) ([4]; spleen, 200 μg/day vs vehicle): decreased | total number of recently activated CD4 T cells (CD69 and CD44) ([4]; spleen, 200 μg/day vs vehicle): also decreased | activation of LXRβ/RXR [5]: not to transactivate; also recorded: does not activate | infiltration of CD4+ cells in to the CNS [6]: significant reduction | infiltration of CD11c+ CD11b+ cells (myeloid DC) in to the CNS [6]: significant reduction | activation of Nurr1/RXR heterodimer [7]: selectively activates the Nurr1/RXR permissive heterodimer; also recorded: selectively activates RXR-Nurr1 heterodimers | activation of LXRα/RXR [8]: not to transactivate; also recorded: does not activate | more potent in activating RXR receptors rather than RAR receptors [9]: > 1,000 fold | microglial/macrophage activation (Iba1 staining in CC) ([10]; 6 weeks concurrent treatment, vs vehicle): no difference | terminal body weights ([10]; ANOVA, vs vehicle): no significant difference | number of SMI32 positive axonal ovoids in the corpus callosum ([10]; IRX4204 10 mg/kg PO, T4 20 ng/g SQ daily for 6 weeks during CR, vs Vehicle, 10 mg/kg): trend towards decreased number of axonal ovoids but was not statistically different from the Vehicle; also recorded: trend towards decrease in axonal ovoids, but it was statistically not different from vehicle | mortality during the in-life phase ([10]; mouse, in vivo): no mortality | decrease in T4 levels compared to vehicle control animals ([10]; terminal blood draws): ~50% | oligodendrocyte production (EGFP+ oligodendrocytes) [1]: clear dose-responses | Mbp expression (real-time qPCR of lesion samples) [11]: increase | Pdgfra expression (real-time qPCR of lesion samples) [11]: increase | remyelinated axons (ultrastructural analyses of CCP lesions) [11]: more remyelinated axons than vehicle treatment | Nkx2.2+ oligodendrocyte precursor cells (OPCs) in lesions ([11]; vs vehicle): increased | density of CC1+ differentiated oligodendrocytes in lesions ([11]; vs vehicle): increased | density of Olig2+ oligodendrocyte lineage cells in lesions ([11]; vs vehicle): increased | body weight ([12]; 10 mg/kg PO daily for 6 weeks after 12 weeks CR): no significant difference | size of myelinated axons in the corpus callosum ([12]; 6 weeks of treatment after 12 weeks CR): significantly increases; also recorded: shift in distribution to larger axon diameter | size of axons in the upper quartile ([12]; 6 weeks of treatment, 3rd quartile, axons about 0.7 μm, P<0.0001): significant increase | symptoms of EAE (disease severity score) [13]: significantly reduces the symptoms of EAE
